Test results published in patent US8697687B2, “Treating diseases mediated by blockade of the epithelial sodium channel with pyrazine-2-carboxamide derivatives” (Novartis AG, priority 2007, dated 2014).

biological target: T1, epithelial sodium channel (ENaC) (Homo sapiens, UniProt P37088+P51168+P51170); assay: Short circuit current (ISC) measurements in Human Bronchial Epithelial cells, inhibition of amiloride-sensitive ISC; format: cell-based; conditions: not given
T1 construct: host or cells: primary Human Bronchial Epithelial cells (HBECs), air-liquid interface culture
T1 sequence (P37088 1-669): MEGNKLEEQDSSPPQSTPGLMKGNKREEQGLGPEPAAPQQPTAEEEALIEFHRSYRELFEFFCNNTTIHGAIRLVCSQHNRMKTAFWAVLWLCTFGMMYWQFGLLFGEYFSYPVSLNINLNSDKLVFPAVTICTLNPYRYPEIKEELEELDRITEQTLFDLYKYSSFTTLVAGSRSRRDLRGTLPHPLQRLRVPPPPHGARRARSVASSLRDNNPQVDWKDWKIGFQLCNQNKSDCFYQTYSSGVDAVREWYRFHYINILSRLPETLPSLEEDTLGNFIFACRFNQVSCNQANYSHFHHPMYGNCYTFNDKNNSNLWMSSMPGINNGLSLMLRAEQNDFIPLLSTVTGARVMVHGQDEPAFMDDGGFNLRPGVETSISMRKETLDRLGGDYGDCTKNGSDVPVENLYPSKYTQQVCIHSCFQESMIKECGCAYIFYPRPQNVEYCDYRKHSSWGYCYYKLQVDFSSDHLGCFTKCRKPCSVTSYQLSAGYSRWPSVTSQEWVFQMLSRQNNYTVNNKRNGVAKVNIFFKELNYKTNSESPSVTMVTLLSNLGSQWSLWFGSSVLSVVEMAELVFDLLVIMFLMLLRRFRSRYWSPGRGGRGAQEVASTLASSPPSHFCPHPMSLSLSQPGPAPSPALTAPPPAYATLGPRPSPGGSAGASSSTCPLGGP
T1 sequence (P51168 1-640): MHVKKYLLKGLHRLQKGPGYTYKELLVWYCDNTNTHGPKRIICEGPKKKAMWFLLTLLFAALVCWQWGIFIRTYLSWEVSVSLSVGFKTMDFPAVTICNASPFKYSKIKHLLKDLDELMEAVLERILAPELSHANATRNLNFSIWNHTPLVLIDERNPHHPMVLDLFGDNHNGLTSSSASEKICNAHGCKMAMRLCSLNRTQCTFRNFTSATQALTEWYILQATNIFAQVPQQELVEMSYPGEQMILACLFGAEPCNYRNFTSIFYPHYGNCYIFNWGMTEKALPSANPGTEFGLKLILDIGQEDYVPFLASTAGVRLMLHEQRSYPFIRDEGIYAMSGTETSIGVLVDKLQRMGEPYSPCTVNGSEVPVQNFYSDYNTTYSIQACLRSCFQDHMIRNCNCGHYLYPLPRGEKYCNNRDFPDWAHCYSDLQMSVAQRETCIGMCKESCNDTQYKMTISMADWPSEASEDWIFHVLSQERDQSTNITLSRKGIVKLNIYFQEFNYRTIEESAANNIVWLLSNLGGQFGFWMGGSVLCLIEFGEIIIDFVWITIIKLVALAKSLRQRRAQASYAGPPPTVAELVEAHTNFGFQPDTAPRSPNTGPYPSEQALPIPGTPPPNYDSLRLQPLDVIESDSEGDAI
T1 sequence (P51170 1-649): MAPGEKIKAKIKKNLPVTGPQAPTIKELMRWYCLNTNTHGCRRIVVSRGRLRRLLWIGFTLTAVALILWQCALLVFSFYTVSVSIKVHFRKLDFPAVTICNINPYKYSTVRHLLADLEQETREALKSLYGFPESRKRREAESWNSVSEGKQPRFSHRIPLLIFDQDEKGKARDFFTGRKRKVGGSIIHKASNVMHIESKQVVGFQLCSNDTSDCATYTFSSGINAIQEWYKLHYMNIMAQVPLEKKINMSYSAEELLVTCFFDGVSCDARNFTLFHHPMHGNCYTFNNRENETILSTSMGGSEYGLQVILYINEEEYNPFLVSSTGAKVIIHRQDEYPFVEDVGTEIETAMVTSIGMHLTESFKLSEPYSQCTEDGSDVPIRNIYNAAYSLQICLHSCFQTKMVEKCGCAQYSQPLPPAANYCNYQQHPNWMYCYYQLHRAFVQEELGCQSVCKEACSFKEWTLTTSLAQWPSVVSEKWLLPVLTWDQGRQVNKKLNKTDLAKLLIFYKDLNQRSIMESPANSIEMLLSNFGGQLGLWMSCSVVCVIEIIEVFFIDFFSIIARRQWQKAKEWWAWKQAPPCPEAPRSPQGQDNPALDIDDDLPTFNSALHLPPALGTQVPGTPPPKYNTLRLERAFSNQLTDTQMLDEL
Description: Compounds of formula (I) and their pharmaceutically acceptable salts, hereinafter referred to alternatively as “agents of the invention”, are useful as pharmaceuticals. In particular, the compounds have good ENaC blocker activity and may be tested in the following assays.
Human Bronchial Epithelial cells (HBECs) (Cambrex) were cultured under air-liquid interface conditions to provide a well differentiated mucociliary phenotype.
HBECs were cultured using a modification of the method described by Gray and colleagues (Gray et al., 1996). Cells were seeded in plastic T-162 flasks and were grown in bronchial epithelial cell growth medium (BEGM; Cambrex) supplemented with bovine pituitary extract (52 μg/mL), hydrocortisone (0.5 μg/mL), human recombinant epidermal growth factor (0.5 ng/mL), epinephrine (0.5 μg/mL), transferrin (10 μg/mL), insulin (5 μg/mL), retinoic acid (0.1 μg/mL), triiodothyronine ([…]), gentamycin (50 μg/mL) and amphotericin B (50 ng/mL). Medium was changed every 48 hours until cells were 90% confluent. Cells were then passaged and seeded (8.25×10^5 cells/insert) on polycarbonate Snapwell inserts (Costar) in differentiation media containing 50% DMEM in BEGM with the same supplements as above but without triiodothyronine and a final retinoic acid concentration of 50 nM (all-trans retinoic acid). Cells were maintained submerged for the first 7 days in culture, after which time they were exposed to an apical air interface for the remainder of the culture period. At this time, media was changed to DMEM:F12 media containing 2% v/v Ultroser G for the remainder of culture. Amphotericin B was removed from all media 3 feeds prior to use in the Using Chambers. Cells were used between days 7 and 21 after establishment of the apical-air interface. At all stages of culture, cells were maintained at 37° C. in 5% CO2 in an air incubator.
Short Circuit Current (ISC) Measurements
Snapwell inserts were mounted in Vertical Diffusion Chambers (Costar) and were bathed with continuously gassed Ringer solution (5% CO2 in O2; pH 7.4) maintained at 37° C. containing (in mM): 120 NaCl, 25 NaHCO3, 3.3 KH2PO4, 0.8 K2HPO4, 1.2 CaCl2, 1.2 MgCl2, and 10 glucose. The solution osmolarity was between 280 and 300 mOsmol/kg H2O for all physiological salt solutions used. Cells were voltage clamped to 0 mV (model EVC4000; WPI). RT was measured by applying a 1- or 2-mV pulse at 30-s intervals and calculating RT by Ohm's law. Data were recorded using a PowerLab workstation (ADInstruments).
Test compounds were prepared as a 10 mM stock solution in DMSO (95%). Serial 3-fold dilutions were freshly prepared in an appropriate vehicle (distilled H2O or Ringers solution). The initial concentration was added to the apical chamber as a 1000× concentrate in 5 μL, resulting in a final 1× concentration the 5 mL volume of the Ussing chamber. Subsequent additions of compound were added in a 3.3 μL volume of the 1000× serially diluted stock solution. At the completion of the concentration-response experiment, amiloride (10 μM) was added into the apical chamber to enable the total amiloride-sensitive current to be measured. An amiloride control IC50 was established at the start of each experiment.
Results are expressed as the mean % inhibition of the amiloride-sensitive ISC. Concentration-response curves were plotted and IC50 values generated using GraphPad Prism 3.02. Cell inserts were typically run in duplicate and the IC50 calculated on the mean % inhibition data.

Row | SMILES | IC50 [nM]
1 | CC(C)(C)c1ccc(OCCn2ccc3c(C(=O)N4CCC5(CC4)CN/C(=N\C(=O)c4nc(Cl)c(N)nc4N)N5)cccc32)cc1 [Example 86, 3,5-Diamino-6-chloro-pyrazine-2-carboxylic acid [8-{1-[2-(4-tert-butyl-phenoxy)-ethyl]-1H-indole-4-carbonyl}-1,3,8-triaza-spiro[4.5]dec-(2E)-ylidene]-amide] | 8

same assay, conditions: inhibition of the amiloride-sensitive ISC; Human Bronchial Epithelial cells (HBECs) at air-liquid interface; compound added to apical chamber; read-out: IC50

Row | SMILES | IC50 [nM]
2 | CC(C)NC(=O)Nc1cc(C(=O)N2CCC3(CC2)CN/C(=N\C(=O)c2nc(Cl)c(N)nc2N)N3)ccn1 [Example 62, 3,5-Diamino-6-chloro-pyrazine-2-carboxylic acid [8-[2-(3-isopropyl-ureido)-pyridine-4-carbonyl]-1,3,8-triaza-spiro[4.5]dec-(2E)-ylidene]-amide] | 13
3 | CCN(CC)C(=O)Cn1ccc2c(C(=O)N3CCC4(CC3)CN/C(=N\C(=O)c3nc(Cl)c(N)nc3N)N4)cccc21 [Example 91, 3,5-Diamino-6-chloro-pyrazine-2-carboxylic acid [8-(1-diethylcarbamoylmethyl-1H-indole-4-carbonyl)-1,3,8-triaza-spiro[4.5]dec-(2E)-ylidene]-amide] | 88.5
4 | Nc1nc(N)c(C(=O)/N=C2\NCC3(CCN(C(=O)c4cn(S(=O)(=O)c5ccccc5)c5ccccc45)CC3)N2)nc1Cl [Example 40, 3,5-Diamino-6-chloro-pyrazine-2-carboxylic acid [8-(1-benzenesulfonyl-1H-indole-3-carbonyl)-1,3,8-triaza-spiro[4.5]dec-(2E)-ylidene]-amide] | 5.5
5 | CC(c1ccccc1)N1CCC2(CC1)CN/C(=N\C(=O)c1nc(Cl)c(N)nc1N)N2 (stereo not shown) [Example 246, 3,5-Diamino-6-chloro-pyrazine-2-carboxylic acid [8-(1-phenyl-ethyl)-1,3,8-triaza-spiro[4.5]dec-(2E)-ylidene]-amide] | 25
6 | Nc1nc(N)c(C(=O)/N=C2\NCC3(CC4CCC(C3)N4C(=O)c3cccc4[nH]ccc34)N2)nc1Cl (stereo not shown) [Example 252, (E)-N-(8-(1H-indole-4-carbonyl)-8-azaspiro[bicyclo[3.2.1]octane-3,4′-imidazolidine]-2′-ylidene)-3,5-diamino-6-chloropyrazine-2-carboxamide] | 28

Continued, values first:

Row | IC50 [nM] | SMILES
7 | 364 | Cn1ccc2cc(S(=O)(=O)N3CCC4(CC3)CN/C(=N\C(=O)c3nc(Cl)c(N)nc3N)N4)ccc21 [Example 235, 3,5-Diamino-6-chloro-pyrazine-2-carboxylic acid [8-(1-methyl-1H-indole-5-sulfonyl)-1,3,8-triaza-spiro[4.5]dec-(2E)-ylidene]-amide]
8 | 175 | Nc1nc(N)c(C(=O)/N=C2\NCC3(CCN(C(=O)c4cocn4)CC3)N2)nc1Cl [Example 118, 3,5-Diamino-6-chloro-pyrazine-2-carboxylic acid [8-(oxazole-4-carbonyl)-1,3,8-triaza-spiro[4.5]dec-(2E)-ylidene]-amide]
9 | 143 | Cc1nc(-c2ccccc2)ncc1C(=O)N1CCC2(CC1)CN/C(=N\C(=O)c1nc(Cl)c(N)nc1N)N2 [Example 58, 3,5-Diamino-6-chloro-pyrazine-2-carboxylic acid [8-(4-methyl-2-phenyl-pyrimidine-5-carbonyl)-1,3,8-triaza-spiro[4.5]dec-(2E)-ylidene]-amide]
10 | 62 | CC(=O)N[C@@H](Cc1ccc(OC(C)C)cc1)C(=O)N1CCC2(CC1)CN/C(=N\C(=O)c1nc(Cl)c(N)nc1N)N2 [Example 185, 3,5-Diamino-6-chloro-pyrazine-2-carboxylic acid [8-[(S)-2-acetylamino-3-(4-isopropoxy-phenyl)-propionyl]-1,3,8-triaza-spiro[4.5]dec-(2E)-ylidene]-amide]
11 | 18 | Nc1nc(N)c(C(=O)/N=C2/NC[C@@H](CCCc3ccc(OC[C@@H](O)CO)cc3)N2)nc1Cl [Example 19, 3,5-Diamino-6-chloro-pyrazine-2-carboxylic acid [(R)-4-{3-[4-((S)-2,3-dihydroxy-propoxy)-phenyl]-propyl}-imidazolidin-(2Z)-ylidene]-amide]
12 | 11.5 | CCOC(=O)C1CCCN(S(=O)(=O)c2cccc(C(=O)N3CCC4(CC3)CN/C(=N\C(=O)c3nc(Cl)c(N)nc3N)N4)c2)C1 (stereo not shown) [Example 128, 1-(3-{2-[(E)-3,5-Diamino-6-chloro-pyrazine-2-carbonylimino]-1,3,8-triaza-spiro[4.5]decane-8-carbonyl}-benzenesulfonyl)-piperidine-3-carboxylic acid ethyl ester]
13 | 8.5 | Nc1nc(N)c(C(=O)/N=C2\NCC3(CCN(C(=O)NCCc4cccc(OCc5ccccc5)c4)CC3)N2)nc1Cl [Example 220, 2-[(E)-3,5-Diamino-6-chloro-pyrazine-2-carbonylimino]-1,3,8-triaza-spiro[4.5]decane-8-carboxylic acid [2-(3-benzyloxy-phenyl)-ethyl]-amide]
